In paper PMC8645336, “Benchmarking a highly selective USP30 inhibitor for enhancement of mitophagy and pexophagy” (Life Science Alliance, 2021):

What was measured:
Test in all cases: biochemical
Design in all cases: Ubiquigent DUB profiler selectivity panel, remaining enzyme activity as % of control
Conditions in all cases: read-out: % of control remaining
[1] = molecular target: USP6 (Homo sapiens, UniProt P35125)
Procedure, shortened: (§1)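 CMPD-39 selectivity was profiled at 1-100 μM across >40 DUBs. Cellular engagement used 2 h CMPD-39 pretreatment, then HA-Ub-PA probe for 10 min at 37°C, with USP30 band shift on immunoblot. TOMM20 ubiquitylation was blotted in YFP-PRKN hTERT-RPE1 cells after 1 h antimycin A/oligomycin A (1 μM each).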

[2] = molecular target: T1, UCHL5 (Homo sapiens, UniProt Q9Y5K5)
T1 sequence (Q9Y5K5 1-329): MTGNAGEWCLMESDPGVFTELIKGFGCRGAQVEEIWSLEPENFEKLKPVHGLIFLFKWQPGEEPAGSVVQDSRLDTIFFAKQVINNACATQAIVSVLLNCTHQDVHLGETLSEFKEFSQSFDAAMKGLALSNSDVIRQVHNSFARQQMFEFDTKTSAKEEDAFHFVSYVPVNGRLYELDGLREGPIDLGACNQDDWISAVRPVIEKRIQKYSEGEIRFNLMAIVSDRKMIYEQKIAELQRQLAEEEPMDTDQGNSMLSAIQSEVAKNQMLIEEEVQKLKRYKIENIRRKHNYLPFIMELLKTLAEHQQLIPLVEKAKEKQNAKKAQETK
Procedure, shortened: as §1

[3] = molecular target: USP9x (Homo sapiens, UniProt Q93008)
USP9x, sequence (Q93008 whole entry): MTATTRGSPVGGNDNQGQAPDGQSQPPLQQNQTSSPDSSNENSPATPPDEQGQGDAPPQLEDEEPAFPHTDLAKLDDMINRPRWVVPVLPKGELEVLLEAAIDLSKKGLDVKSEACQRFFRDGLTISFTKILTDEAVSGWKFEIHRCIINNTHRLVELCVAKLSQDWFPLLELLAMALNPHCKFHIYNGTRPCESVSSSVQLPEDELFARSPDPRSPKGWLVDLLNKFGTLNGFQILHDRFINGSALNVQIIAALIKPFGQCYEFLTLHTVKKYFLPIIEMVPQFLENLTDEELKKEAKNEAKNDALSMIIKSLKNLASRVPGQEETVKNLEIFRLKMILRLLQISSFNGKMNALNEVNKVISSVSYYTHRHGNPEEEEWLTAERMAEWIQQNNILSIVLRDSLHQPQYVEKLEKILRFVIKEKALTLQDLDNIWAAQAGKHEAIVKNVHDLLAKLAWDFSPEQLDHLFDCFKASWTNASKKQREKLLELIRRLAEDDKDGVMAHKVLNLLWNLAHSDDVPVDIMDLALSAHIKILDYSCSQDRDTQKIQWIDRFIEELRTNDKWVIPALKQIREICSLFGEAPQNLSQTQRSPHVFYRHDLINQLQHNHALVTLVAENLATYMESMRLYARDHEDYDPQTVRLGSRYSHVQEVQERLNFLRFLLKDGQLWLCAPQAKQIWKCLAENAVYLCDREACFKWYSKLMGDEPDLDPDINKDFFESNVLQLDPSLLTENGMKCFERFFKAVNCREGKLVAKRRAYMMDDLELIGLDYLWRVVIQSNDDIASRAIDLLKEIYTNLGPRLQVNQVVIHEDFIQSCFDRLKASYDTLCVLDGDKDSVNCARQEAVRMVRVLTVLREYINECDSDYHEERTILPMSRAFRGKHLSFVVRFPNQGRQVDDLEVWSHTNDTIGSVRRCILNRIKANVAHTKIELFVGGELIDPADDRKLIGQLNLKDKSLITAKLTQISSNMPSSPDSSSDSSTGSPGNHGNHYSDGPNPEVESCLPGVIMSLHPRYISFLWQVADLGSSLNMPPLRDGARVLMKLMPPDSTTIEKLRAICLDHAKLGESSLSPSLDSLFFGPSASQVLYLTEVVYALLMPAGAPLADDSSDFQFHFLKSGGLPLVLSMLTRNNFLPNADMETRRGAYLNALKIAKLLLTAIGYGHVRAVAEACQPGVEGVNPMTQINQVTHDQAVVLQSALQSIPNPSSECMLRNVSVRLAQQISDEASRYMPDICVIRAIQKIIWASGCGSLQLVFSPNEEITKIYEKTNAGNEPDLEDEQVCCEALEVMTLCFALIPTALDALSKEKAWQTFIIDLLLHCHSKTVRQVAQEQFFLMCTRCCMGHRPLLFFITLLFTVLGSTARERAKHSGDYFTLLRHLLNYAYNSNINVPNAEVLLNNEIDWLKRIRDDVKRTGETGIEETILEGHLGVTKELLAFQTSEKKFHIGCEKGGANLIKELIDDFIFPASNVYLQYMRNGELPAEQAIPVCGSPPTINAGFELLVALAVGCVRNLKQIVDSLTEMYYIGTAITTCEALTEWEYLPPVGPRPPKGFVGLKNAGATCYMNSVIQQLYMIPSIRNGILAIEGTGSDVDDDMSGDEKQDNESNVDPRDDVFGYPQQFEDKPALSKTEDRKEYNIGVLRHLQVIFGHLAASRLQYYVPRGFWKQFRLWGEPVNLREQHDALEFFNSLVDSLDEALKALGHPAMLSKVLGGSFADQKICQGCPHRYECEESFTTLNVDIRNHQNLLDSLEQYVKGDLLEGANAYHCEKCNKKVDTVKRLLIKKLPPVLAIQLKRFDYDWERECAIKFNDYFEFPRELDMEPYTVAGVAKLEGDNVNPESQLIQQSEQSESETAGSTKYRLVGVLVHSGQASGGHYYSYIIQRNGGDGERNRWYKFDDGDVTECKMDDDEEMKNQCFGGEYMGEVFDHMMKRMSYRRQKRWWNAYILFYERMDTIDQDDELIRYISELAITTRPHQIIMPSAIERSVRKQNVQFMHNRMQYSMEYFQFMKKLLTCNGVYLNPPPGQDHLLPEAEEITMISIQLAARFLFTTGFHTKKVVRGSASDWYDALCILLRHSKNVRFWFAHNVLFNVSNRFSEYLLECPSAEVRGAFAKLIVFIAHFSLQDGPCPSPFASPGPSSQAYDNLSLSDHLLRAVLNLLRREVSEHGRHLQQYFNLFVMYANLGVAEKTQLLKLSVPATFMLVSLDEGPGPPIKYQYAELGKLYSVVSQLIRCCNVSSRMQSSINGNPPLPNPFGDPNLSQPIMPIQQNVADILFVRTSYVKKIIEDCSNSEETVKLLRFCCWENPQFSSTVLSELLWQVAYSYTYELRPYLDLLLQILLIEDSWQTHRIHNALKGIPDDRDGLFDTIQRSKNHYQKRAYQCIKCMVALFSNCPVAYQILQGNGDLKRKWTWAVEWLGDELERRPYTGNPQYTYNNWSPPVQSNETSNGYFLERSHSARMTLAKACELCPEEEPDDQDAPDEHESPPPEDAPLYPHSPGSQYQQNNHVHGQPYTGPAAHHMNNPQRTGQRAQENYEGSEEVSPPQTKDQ
Procedure, shortened: as §1

[4] = molecular target: T2, UCHL3 (Homo sapiens, UniProt P15374)
T2 sequence (P15374 1-230): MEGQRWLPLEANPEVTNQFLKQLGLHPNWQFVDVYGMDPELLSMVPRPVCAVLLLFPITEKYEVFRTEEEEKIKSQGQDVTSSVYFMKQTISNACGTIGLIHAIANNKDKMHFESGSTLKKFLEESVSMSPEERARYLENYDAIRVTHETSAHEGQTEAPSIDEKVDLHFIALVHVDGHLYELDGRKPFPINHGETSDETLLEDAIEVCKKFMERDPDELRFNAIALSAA
Procedure, shortened: as §1

[5] = molecular target: T3, CYLD (Homo sapiens, UniProt Q9NQC7)
T3 sequence (Q9NQC7 1-956): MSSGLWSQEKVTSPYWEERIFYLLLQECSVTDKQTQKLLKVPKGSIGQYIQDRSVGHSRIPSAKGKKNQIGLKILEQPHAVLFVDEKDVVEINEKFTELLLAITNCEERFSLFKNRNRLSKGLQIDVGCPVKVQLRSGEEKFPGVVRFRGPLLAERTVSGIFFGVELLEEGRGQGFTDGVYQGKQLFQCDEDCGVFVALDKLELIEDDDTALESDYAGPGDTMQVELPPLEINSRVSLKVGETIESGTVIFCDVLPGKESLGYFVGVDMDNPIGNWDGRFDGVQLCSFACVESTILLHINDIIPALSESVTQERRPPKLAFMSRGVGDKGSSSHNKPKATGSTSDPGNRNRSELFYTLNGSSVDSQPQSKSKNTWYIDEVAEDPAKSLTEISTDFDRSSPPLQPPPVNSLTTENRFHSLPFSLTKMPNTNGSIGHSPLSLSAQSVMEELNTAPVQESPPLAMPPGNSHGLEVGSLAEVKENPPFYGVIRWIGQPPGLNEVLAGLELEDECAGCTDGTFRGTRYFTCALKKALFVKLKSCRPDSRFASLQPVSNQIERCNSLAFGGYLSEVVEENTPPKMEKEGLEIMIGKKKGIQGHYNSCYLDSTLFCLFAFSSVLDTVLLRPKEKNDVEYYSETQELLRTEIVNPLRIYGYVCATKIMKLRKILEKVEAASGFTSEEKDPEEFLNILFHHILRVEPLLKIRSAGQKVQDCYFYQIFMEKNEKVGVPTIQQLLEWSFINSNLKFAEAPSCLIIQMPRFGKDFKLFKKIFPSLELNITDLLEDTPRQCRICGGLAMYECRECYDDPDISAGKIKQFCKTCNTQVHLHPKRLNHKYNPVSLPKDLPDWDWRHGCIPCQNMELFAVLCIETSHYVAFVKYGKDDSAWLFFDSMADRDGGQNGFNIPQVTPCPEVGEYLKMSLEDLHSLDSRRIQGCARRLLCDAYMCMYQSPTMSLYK
Procedure, shortened: as §1

USP6, sequence (P35125 whole entry): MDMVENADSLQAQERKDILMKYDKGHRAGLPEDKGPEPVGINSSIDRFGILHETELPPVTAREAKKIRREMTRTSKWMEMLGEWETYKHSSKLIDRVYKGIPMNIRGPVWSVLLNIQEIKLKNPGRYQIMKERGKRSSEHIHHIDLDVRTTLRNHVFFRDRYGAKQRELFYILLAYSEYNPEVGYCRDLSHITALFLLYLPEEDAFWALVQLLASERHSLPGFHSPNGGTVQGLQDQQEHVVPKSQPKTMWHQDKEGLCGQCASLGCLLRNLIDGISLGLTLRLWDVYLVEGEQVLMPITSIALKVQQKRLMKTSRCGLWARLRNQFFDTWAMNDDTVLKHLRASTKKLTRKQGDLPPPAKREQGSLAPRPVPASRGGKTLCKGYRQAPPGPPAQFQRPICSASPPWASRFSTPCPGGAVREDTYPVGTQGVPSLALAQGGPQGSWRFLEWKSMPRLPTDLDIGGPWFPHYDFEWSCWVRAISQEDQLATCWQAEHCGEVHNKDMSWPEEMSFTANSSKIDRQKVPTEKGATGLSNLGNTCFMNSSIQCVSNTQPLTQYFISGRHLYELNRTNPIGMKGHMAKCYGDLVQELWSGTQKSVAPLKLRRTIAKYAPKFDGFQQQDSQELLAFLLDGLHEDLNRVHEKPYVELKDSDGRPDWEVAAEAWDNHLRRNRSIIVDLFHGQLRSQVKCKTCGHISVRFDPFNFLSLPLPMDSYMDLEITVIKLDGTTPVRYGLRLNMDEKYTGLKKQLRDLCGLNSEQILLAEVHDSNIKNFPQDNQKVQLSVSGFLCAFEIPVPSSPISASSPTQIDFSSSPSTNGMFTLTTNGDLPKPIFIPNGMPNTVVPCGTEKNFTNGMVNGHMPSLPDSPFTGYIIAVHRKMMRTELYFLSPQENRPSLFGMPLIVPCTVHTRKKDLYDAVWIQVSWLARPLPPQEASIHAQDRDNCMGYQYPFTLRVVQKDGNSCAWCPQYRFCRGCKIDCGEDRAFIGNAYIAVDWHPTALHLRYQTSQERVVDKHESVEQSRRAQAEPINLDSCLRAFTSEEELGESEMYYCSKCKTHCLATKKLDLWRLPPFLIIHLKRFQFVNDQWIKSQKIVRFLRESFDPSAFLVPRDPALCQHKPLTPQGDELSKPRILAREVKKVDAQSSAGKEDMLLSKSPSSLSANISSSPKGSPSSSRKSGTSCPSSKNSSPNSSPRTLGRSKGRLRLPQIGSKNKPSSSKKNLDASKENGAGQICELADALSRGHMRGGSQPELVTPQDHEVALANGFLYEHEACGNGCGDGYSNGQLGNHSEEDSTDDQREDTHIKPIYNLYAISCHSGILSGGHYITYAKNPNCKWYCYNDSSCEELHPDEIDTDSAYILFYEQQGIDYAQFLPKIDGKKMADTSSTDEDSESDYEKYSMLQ

remaining activity at 1 µM [1]: 101%
remaining activity at 10 µM [1]: 96.8%
remaining activity at 100 µM [1]: 90.6%
remaining activity at 1 µM [2]: 107%
remaining activity at 10 µM [2]: 98%
remaining activity at 100 µM [2]: 101%
remaining activity at 1 µM [3]: 104%
remaining activity at 10 µM [3]: 108%
remaining activity at 100 µM [3]: 98.3%
remaining activity at 1 µM [4]: 107%
remaining activity at 10 µM [4]: 98.8%
remaining activity at 100 µM [4]: 97.6%
remaining activity at 1 µM [5]: 107%
remaining activity at 10 µM [5]: 102%
remaining activity at 100 µM [5]: 98%
Structure (SMILES): CC(C)(C)NS(=O)(=O)c1ccc(NC(=O)[C@H](Cc2ccccc2)NC(=O)c2ccc(F)cc2)cc1 [compound 39, CMPD-39]
